Ten compounds from PubChem BioAssay (NCI) can be followed below.

Among the test systems are BT-549 breast; HOP-62 NSCLC; HS 578T breast; MDA-MB-231 breast; SF-268 CNS; SNB-19 CNS; TK-10 renal; UACC-257 melanoma.
Assay in all cases: inhibition of tumour cell growth, NCI panel, 48 h

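Method: 48-hour compound exposure of cells in 96-well plates, five concentrations, linear interpolation of endpoints. Here, GI50 denotes the concentration required for 50% inhibition of growth. At the TGI there is no net growth.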

As for `C/C=C(\C)C(=O)N[C@H]1C(O)C[C@]2(C)C3CC[C@@]4(C)C(CC[C@@H]4C(C)N(C)C)C3CCC2C1O` (some centres not stated), the GI50 in the test on BT-549 breast was 16.9 µM; with HOP-62 NSCLC, 5.97 µM; in the test with HS 578T breast, 6.56 µM; with MDA-MB-231 breast, 6.06 µM; with SF-268 CNS it was 2.8 µM; with SNB-19 CNS, 18.8 µM. The GI50 in the test with TK-10 renal was 18.1 µM; in the test with UACC-257 melanoma, 3.22 µM. For the same compound, the TGI in the test with BT-549 breast is 51.9 µM; in the test with HOP-62 NSCLC it was 11.8 µM; with HS 578T breast, 29.6 µM; in the test with MDA-MB-231 breast it was 18 µM; in the test on SF-268 CNS it was 8.94 µM; with SNB-19 CNS it was 43.8 µM. Also, the values for the TGI with TK-10 renal and with UACC-257 melanoma were 41.5 µM and 9.75 µM, respectively.

For `CCN(CC)CCOc1ccc(C(=O)/C=C\c2ccc(Cl)cc2Cl)cc1`, the GI50 is 5.83 µM in the test with BT-549 breast; 11 µM in the test with HOP-62 NSCLC; 9.47 µM in the test with HS 578T breast; 4.92 µM in the test on MDA-MB-231 breast; 8.41 µM in the test on SF-268 CNS; 6.81 µM in the test on SNB-19 CNS. The GI50 was 15.6 µM with TK-10 renal and 4.51 µM in the test with UACC-257 melanoma. Moreover, the TGI with BT-549 breast was found to be 18.2 µM; with HOP-62 NSCLC it was 24.9 µM; with HS 578T breast, 32 µM; in the test on MDA-MB-231 breast, 20.1 µM; in the test with SF-268 CNS, 23.7 µM; in the test with SNB-19 CNS it was 24.4 µM. The TGI in the test with TK-10 renal was determined as 29.2 µM; with UACC-257 melanoma it was 15.2 µM.

Regarding `Cc1ccc(-c2nc(N3CCCNCC3)c3oc(-c4ccc(C)cc4)nc3n2)cc1`, the GI50 in the test with BT-549 breast is 16.3 µM; with HOP-62 NSCLC it was 8.78 µM; in the test on HS 578T breast it was 12.6 µM; with MDA-MB-231 breast, 1.69 µM; in the test with SF-268 CNS it was 1.77 µM; with SNB-19 CNS, 1.77 µM. Further, the figures for the GI50 in the test on TK-10 renal and with UACC-257 melanoma were 2.08 µM and 19.8 µM, respectively. Further, the TGI with BT-549 breast was 35 µM; with HOP-62 NSCLC, 24.3 µM; in the test with HS 578T breast, 31.9 µM; in the test on MDA-MB-231 breast it was 3.11 µM; in the test on SF-268 CNS, 3.48 µM; in the test on SNB-19 CNS, 3.25 µM. Moreover, the results for the TGI in the test with TK-10 renal and with UACC-257 melanoma were 3.96 µM and 41.1 µM, respectively.

`CN1C(Cl)=NS(=O)(=O)c2ccccc21`: the TGI with BT-549 breast, with HOP-62 NSCLC, with HS 578T breast, in the test with MDA-MB-231 breast, in the test on SF-268 CNS and in the test with SNB-19 CNS was greater than 100 µM each time. Besides, the TGI with TK-10 renal and in the test with UACC-257 melanoma was greater than 100 µM in each case.

Consider `CN(C)CCN1C(=O)c2cccc3cccc(c23)C1=O`, for which the GI50 in the test with BT-549 breast was greater than 25 µM; in the test on HOP-62 NSCLC, greater than 25 µM; in the test with HS 578T breast, greater than 25 µM; in the test with MDA-MB-231 breast it was greater than 25 µM; in the test on SF-268 CNS, 18.9 µM; in the test with SNB-19 CNS, 22.3 µM. Moreover, the GI50 with TK-10 renal is 12.3 µM; in the test with UACC-257 melanoma, greater than 25 µM. In addition, the TGI in the test on BT-549 breast, in the test with HOP-62 NSCLC, with HS 578T breast, in the test on MDA-MB-231 breast, with SF-268 CNS and in the test on SNB-19 CNS was greater than 25 µM each time. The TGI in the test with TK-10 renal and in the test with UACC-257 melanoma was greater than 25 µM throughout.

On to `Cc1cccc2c(N)c3ccccc3nc12`, for which the GI50 is 3.23 µM in the test on BT-549 breast; 0.854 µM in the test on HOP-62 NSCLC; 3.44 µM in the test on HS 578T breast; 1.26 µM in the test on MDA-MB-231 breast; 1.5 µM in the test on SF-268 CNS; 2.06 µM with SNB-19 CNS. Moreover, the GI50 with TK-10 renal is 1.78 µM; in the test on UACC-257 melanoma it was 1.87 µM. Besides, the TGI worked out at 12.9 µM in the test on BT-549 breast; 5.3 µM with HOP-62 NSCLC; 17.4 µM in the test with HS 578T breast; 5.26 µM in the test with MDA-MB-231 breast; 9.22 µM in the test with SF-268 CNS; 16.7 µM in the test on SNB-19 CNS. The TGI with TK-10 renal was determined as 8.27 µM; in the test with UACC-257 melanoma, 3.63 µM.

For the compound `CC(C)CCN[C@@H]1CCc2cc(O)c(N3CC(=O)NS3(=O)=O)c(F)c2C1`, the GI50 in the test with BT-549 breast is 5.44 µM; with HOP-62 NSCLC, greater than 100 µM; in the test with HS 578T breast, greater than 100 µM; with MDA-MB-231 breast, greater than 100 µM; with SF-268 CNS it was greater than 100 µM; in the test with SNB-19 CNS, greater than 100 µM. In addition, the GI50 in the test on TK-10 renal and with UACC-257 melanoma was greater than 100 µM throughout. Besides, the TGI in the test on BT-549 breast, in the test with HOP-62 NSCLC, in the test on HS 578T breast, in the test on MDA-MB-231 breast, with SF-268 CNS and in the test with SNB-19 CNS was greater than 100 µM in each case. For the same compound, the TGI in the test with TK-10 renal and in the test with UACC-257 melanoma was greater than 100 µM each time.

`CCN(CC)CCSCCCNc1c2ccc(Cl)cc2nc2ccc(OC)cc12`: the GI50 in the test with BT-549 breast is 1.77 µM; with HOP-62 NSCLC, 0.558 µM; in the test on HS 578T breast, 2.12 µM; with MDA-MB-231 breast it was 1.01 µM; in the test on SF-268 CNS it was 1.06 µM; with SNB-19 CNS, 1.25 µM. Besides, the GI50 was 1.55 µM in the test on TK-10 renal and 2.06 µM with UACC-257 melanoma. Also, the TGI with BT-549 breast amounted to 3.5 µM; with HOP-62 NSCLC, 2.21 µM; in the test on HS 578T breast, 5.28 µM; with MDA-MB-231 breast it was 3 µM; in the test with SF-268 CNS, 3.01 µM; in the test on SNB-19 CNS, 4.88 µM. Further, the TGI in the test with TK-10 renal came to 3.87 µM; with UACC-257 melanoma, 3.85 µM.

As to `C=CCCCc1ccc(C(O)CCCCCCCCCCCC)o1` (configuration not stated), the GI50 in the test with BT-549 breast was 22.6 µM; in the test on HOP-62 NSCLC, 16 µM; in the test with HS 578T breast, 25.5 µM; in the test with MDA-MB-231 breast it was 15.6 µM; with SF-268 CNS it was 16.1 µM; in the test on SNB-19 CNS, 17.7 µM. Also, the GI50 with TK-10 renal was 21 µM; with UACC-257 melanoma it was 21.8 µM. Besides, the TGI came out at 43.3 µM in the test on BT-549 breast; 30.2 µM in the test on HOP-62 NSCLC; 55.2 µM in the test on HS 578T breast; 29.8 µM in the test on MDA-MB-231 breast; 35 µM in the test on SF-268 CNS; 32.8 µM in the test on SNB-19 CNS. Besides, the values for the TGI in the test on TK-10 renal and in the test on UACC-257 melanoma were 38.3 µM and 48.2 µM, respectively.

With `N#Cc1cc(S(=O)(=O)Nc2nc3ccccc3s2)c(SCc2ccccc2)cc1Cl`, the GI50 with BT-549 breast was 20 µM; with HOP-62 NSCLC, 24.5 µM; in the test with HS 578T breast, 22.4 µM; in the test with MDA-MB-231 breast, 26.7 µM; with SF-268 CNS, 24.7 µM; in the test on SNB-19 CNS, 20.1 µM. The values for the GI50 in the test on TK-10 renal and in the test with UACC-257 melanoma were 37.3 µM and 15.4 µM, respectively. The TGI stood at 48.9 µM in the test on BT-549 breast; 45.7 µM in the test on HOP-62 NSCLC; 53.8 µM in the test on HS 578T breast; 82.6 µM with MDA-MB-231 breast; 78.5 µM in the test on SF-268 CNS; 47.7 µM in the test with SNB-19 CNS. In addition, the TGI in the test on TK-10 renal is 97.5 µM; in the test with UACC-257 melanoma, 35.2 µM.
